This is an account of results in patent publication US11738099B2, “Molecular probes and methods of use” (CASE WESTERN RESERVE UNIVERSITY, priority 2014, dated 2023).

Where no end group is shown, it is not given here.

The target in one data set is EDB fragment (Homo sapiens, UniProt P02751). The data set can be described thus: Peptide ELISA of HRP-conjugated peptides on coated EDB. The class given is binding. The settings on record: HRP conjugates. As for the experimental part:
A linear version of ZD2 (CTVRTSADA) SEQ ID NO: 42 was synthesized so that sulfhydryl group on cysteine could be used for conjugation with maleimide-activated […] (Sigma-Aldrich). Conjugation was carried out as instructed in the manual. The product of conjugation, ZD2-HRP, was used for peptide ELISA assay after coating a 96-well plate with purified EDB. 0.5% BSA in PBS was used to block non-specific binding for later steps. 0.39 μM to 50 μM of ZD2-HRP was incubated with coated EDB for an hour followed by extensive washing with TBST (0.1%). ABTS substrate was added subsequently and allowed to react for 30 min before the absorbance of solution in each well were measured at 415 nm. Non-coated wells added with ABTS were used as blank.
Cyclic ZD2 peptide (CTVRTSADC) (SEQ ID NO: 10) was synthesized using standard solid phase peptide chemistry and was characterized by MALDI-TOF mass spectrometry (FIG. 1C). The peptide was then labeled with a fluorescence chromophore cyanine 5 (Cy5) through a short PEG linker (NH2—(CH2CH2O)—CH2CH2COOH) to give a peptide fluorescence probe ZD2-Cy5. The peptide was also conjugated to peroxidase (ZD2-HRP) and the binding affinity of the peptide to EDB fragment was determined using peptide ELISA assay.
(§1) Similarly, CERAK-HRP is synthesized as a control.
Background: An ELISA detects its analyte on a solid surface through an enzyme-linked reagent.

In the next data set the target is EDA (Homo sapiens, UniProt P02751). The data set can be described thus: ELISA of l-ZD2-HRP on EDA. Type of data set: binding.
Source text: as §1

Data set [1] is described as follows: Relaxivity at 1.5T in water, 37° C. Type of data set: physicochemical. The settings on record: listed as Gd(HP-DO3A). How it is done:
Relaxivity is an important parameter for an MR contrast agent. It reflects how the relaxation rate of the surrounding water proton changes as a function of concentration, and it is directly associated with the agent's contrast enhancing capability during imaging. The relaxivity of the 4 contrast agents was tested at 37° C. in water and compared to Gd(HP-DO3A), Gd-DOTA and ZD2-Gd(HP-DO3A) (FIG. 26). […] Compared to Gd(HP-DO3A), Gd-DOTA, the size increase of the targeted contrast agents due to the peptides and PEG spacer could result in an increase of τR,^[42, 43] thus leading to higher relaxivities.

For data set [2], the system named is PC3 prostate tumor xenografts. The data set can be described thus: T1-weighted MRI at 1 Tesla, PC3 tumors (Example 3). Type of data set: in vivo, mouse. The settings on record: 0.1 mmol/kg i.v., up to 30 min, 1 Tesla. How it is done:
(§2) Male athymic nude mice were purchased from Case Comprehensive Cancer Center (Cleveland, Ohio, USA) and housed in the Animal Core Facility at Case Western Reserve University. All animal experiments were performed in accordance with the animal protocol approved by the CWRU Institutional Animal Care and Use Committee. Athymic nude male mice were subcutaneously injected with 100 μL cell suspension (4×10^7 cells/mL) in matrigel matrix (Corning Bioscience, Corning, N.Y.) to initiate tumors. Mice with tumors of 5-8 mm in diameter were used for imaging studies.
(§3) MR images of tumor bearing mice were acquired on an Aspect M3 small animal MRI scanner (1 Tesla). Mice were placed on a holder with the temperature maintained at 37° C., with isoflurane/oxygen mixture supplied to the mice through a nose cone. A thin catheter filled with PBS was connected to a tail vein of the mice. After mice were placed in the coil, a pilot scan was performed to adjust mice to the proper location in the coil. An axial T1 weighted sequence (TR=500 ms; TE=9 ms; Flip angle=90°; Field of view=3 cm×3 cm; Matrix size=128×128×8; slice thickness=2 mm; interslice distance=1 mm) was then used to acquire the images of the tumors before and 10 min, 20 min and 30 min after contrast injection. Images were exported into DICOM data, which were then processed and analyzed using Matlab (Natick, Mass., USA). The contrast to-noise ratio of tumors in the images were calculated as the difference between tumor mean intensity minus muscle mean intensity, divided by the noise.

Data set [3] has as its system PC3 prostate tumor xenografts. The data set can be described thus: In vivo T1-weighted MRI at 7T, PC3 tumors. On the set-up: species or system mouse. How it is done: (§4) All MRI experiments were performed on a horizontal 7T Bruker scanner (Bruker Biospin Co., Billerica, Mass.). Imaging experiments were performed when the tumor size reached 5-8 mm in diameter. ZD2-Gd(HP-DO3A) was administered intravenously at the dose of 0.1 mmol/kg after acquiring pre-contrast images. Post-contrast images were obtained at 10 min interval up to 30 min. The axial slices of mouse at the tumor location were acquired using T1-weighted spin echo sequence with the following parameters: field of view (FOV): 3 cm; slice thickness: 1.2 mm; interslice distance: 1.2 mm; TR: 500 ms, TE: 8.1 ms; flip angle: 90°; average: 2; matrix size: 128×128. Contrast-to-noise ratio (CNR) at each time point was calculated by subtraction of the average signal intensity in the tumor and muscle, divided by the standard deviation of image noise. ProHance® (gadoteridol) was used as a control in the imaging experiments.

Data set [4] can be described thus: r1 relaxivity by T1 mapping in PC3 tumor lysates. Type of data set: physicochemical.
Data set [5] concerns LNCaP prostate tumor xenografts. The data set can be described thus: In vivo T1-weighted MRI at 7T, LNCaP tumors. On the set-up: species or system mouse. How it is done:
as §4

For data set [6] the test system is unchanged. The data set can be described thus: T1-weighted MRI at 1 Tesla, LNCaP tumors (Example 3). The class given is in vivo, mouse. The settings on record: 0.1 mmol/kg i.v., up to 30 min. As for the experimental part: as §2
as §3, with “An axial T1 weighted sequence (TR=500 ms; TE=9 ms; Flip angle=90°; Field of view=3 cm×3 cm; Matrix size=128×128×8; slice thickness=2 mm; interslice distance=1 mm) was then used to acquire the images of the tumors before and 10 min, 20 min and 30 min after contrast injection.” left out

For another data set, the system named is PC3 tumors. The data set can be described thus: In vivo MRI at 1.0 Tesla, PC3 tumor-bearing mice (Example 5). On the set-up: species or system mouse. As for the experimental part:
All MRI experiments were performed on an Aspect M3 compact MRI scanner (1.0 Telsa, Aspect Imaging. Israel). Imaging experiments were performed when the tumor size reached 5-8 mm in diameter. Each contrast agent was administered intravenously at a dose of 0.1 mmol/kg Gd^3+ after acquiring pre-contrast images. ProHance® (gadoteridol) was used as a control in the imaging experiments. Post-contrast images were obtained at 10 min intervals up to 30 min. Axial slices of the mouse at the tumor location were acquired using a T1-weighted spin echo sequence with the following parameters: TR=500 ms, TE=8.144 ms, slice thickness=1 mm, inter-slice gap=0.1 mm, field of view (FOV)=3 cm×3 cm. The total imaging time is 216 seconds. Contrast-to-noise ratio (CNR) at each time point was calculated by measuring the ratios of signal intensities in manually drawn regions of interest (ROIs) in tumor and muscle, and then normalizing to image noise. A 3D FLASH gradient echo sequence was used for whole-body coronal imaging. Imaging parameters were TR=17.362 ms, TE=6 ms, flip angle=15°, slice thickness=1.5 mm, FOV=[…]. The total imaging time is 226 seconds. Each of the 16 slices was acquired immediately after the acquisitions with the T1-weighted spin echo sequence.

Data set [7] has as its system PC-3 human prostate cancer xenograft. The data set can be described thus: MRI of PC-3 xenograft (Example 2). The settings on record: 0.1 mmol-Gd/kg intravenous. The class given is in vivo, mouse. The text has this:
The same contrast agent also works for prostate cancer imaging. We then tested the effectiveness of targeting EDB-FN with the contrast agent for prostate cancer MRI in male nude mice bearing primary PC-3 human prostate cancer xenograft.

The next data set deals with TGFβ induced 4T1 cells. The data set can be described thus: Binding of Cy5 probes to TGFβ induced 4T1 cells in vitro. Type of data set: cell-based. How it is done:
As tumor cells produce EDB-FN to promote its migration, we further validated if Cy5 labeled l-ZD2 (l-ZD2-Cy5) can bind to TGFβ induced 4T1 cells in vitro. […] To explain this, we hypothesize that in this form of cell culture, no clot formation can take action to provide binding sites for CREKA-Cy5. To validate our hypothesis, we further produced a 3D culture system that mimics the “soil” of metastatic tumor. In the 3D culture system, 4T1 cells were cultured in a microenvironment containing TGFβ, collagen, and fibrin. […] In overall, these evidences point to the conclusion that the use of EDB-FN for targeting micrometastasis may be advantageous compared with Fibronectin-Fibrin complexes in that EDB-FN appears earlier than Fibronectin-Fibrin in the pre-metastatic niche.

The subject of another data set is 4T1 metastatic tumors. The data set can be described thus: Fluorescence detection of micrometastasis, breast cancer metastatic tumor model. The class given is in vivo, mouse. The settings on record: three hours after 10 nmol injection. How it is done: In order to construct a metastatic tumor model, 0.2×10^6 4T1 tumor cells undergone 5 days of TGFβ induction were injected through left ventricle of heart, resulting in the spread of tumor cells primarily in brain, lung, liver, lymph node, adrenal gland, chest, and bone marrow. Bioluminescent images of the mice at two weeks were used to monitor the growth of tumors. To assess the targeting capacity of l-ZD2-Cy5, brain and lung were harvested from the mice three hours after 10 nmol l-ZD2-Cy5 were injected. […] Normal brain and lung harvested from normal mice injected with l-ZD2-Cy5 were used as negative controls. Examination of bigger metastatic tumors in lymph nodes and adrenal gland, as shown in FIG. 8B further backed up the targeting efficiency of l-ZD2-Cy5.

Setting [8] is: 0.1 mmol/kg i.v., up to 30 min, 7T.

EDA, sequence (P02751 1727-1814 limits assumed): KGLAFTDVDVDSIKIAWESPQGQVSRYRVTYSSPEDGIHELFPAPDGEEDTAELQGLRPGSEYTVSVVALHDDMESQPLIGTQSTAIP
EDB fragment, sequence (P02751 1271-1359 limits assumed): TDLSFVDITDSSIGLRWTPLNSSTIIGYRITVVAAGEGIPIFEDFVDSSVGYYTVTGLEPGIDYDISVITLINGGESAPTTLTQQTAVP

With “l-ZD2-HRP: NH2-TVRTSADC-COOH conjugated via cysteine thiol to maleimide activated horseradish peroxidase”, the “binding to EDB protein” value with EDB fragment was “comparable to cyclic ZD2 with a slight increase in affinity”. In addition, the “binding to EDA” value with EDA is on record as “No binding”.

`CC(O)CN1CCN(CC(=O)[O-])CCN(CC(=O)[O-])CCN(CC(=O)[O-])CC1.[Gd+3]` (centres unmarked) [ProHance, gadoteridol, reference compound]: the r1 in data set [1] stood at 2.9 mM⁻¹ s⁻¹. For the same molecule, the “signal enhancement in PC3 tumors” value in data set [2] and in data set [3] (setting [8]) was “modest contrast enhancement” throughout. Moreover, the “CNR in PC3 tumors” value in data set [3] (10-30 min post-injection) was 7˜11. Also, the r1 relaxivity in data set [4] turned out to be 3.17 mM⁻¹ s⁻¹. In addition, the “signal enhancement in LNCaP tumors” value in data set [5] (setting [8]) and in [6] was “modest contrast enhancement” each time. Besides, the “CNR in LNCaP tumors” value in [5] (10-30 min post-injection) is recorded as 7˜10. Moreover, the “tumor signal enhancement, T1-weighted spin-echo” value in the data set on PC3 tumors (0.1 mmol/kg i.v., at 10 minutes, remained at least 30 min) is recorded as “modest contrast enhancement”. In the data set on PC3 tumors (Gd-DOTA conjugates and ProHance, 0.1 mmol/kg), the “time of peak CNR in PC3 tumors” value was 10 min. Moreover, the “CNR in PC3 tumors compared to the peptide targeted contrast agents” value in the data set on PC3 tumors (especially at 20 and 30 min) was “lower CNR”. Also, the tumor contrast enhancement result in [7] is “little contrast enhancement”.

“l-ZD2-Cy5: Cy5 labeled l-ZD2 (TVRTSAD; also: Cy5 labeled, site not given here)”: the “binding to induced 4T1 cells” value in the data set on TGFβ induced 4T1 cells (cell culture) was “bound to induced 4T1 cells within 3 hours”. Further, the “binding in 3D culture of 4T1 cells” value with TGFβ induced 4T1 cells (microenvironment containing TGFβ, collagen, and fibrin) was “accumulated in the cell periphery starting from day 1”. Also, in the data set with 4T1 metastatic tumors, the “binding to micrometastases on brain and lung” value is on record as “clearly outlined the micrometastases”.
